pIC50: −log10 of the molar value. Like-named read-outs stand apart in the source and are kept apart here.
What was measured:
VIM-1 = VIM-1 (Pseudomonas aeruginosa (strain ATCC 15692 / DSM 22644 / CIP 104116 / JCM 14847 / LMG 12228 / 1C / PRS 101 / PAO1), UniProt A0A0F7KYQ8); assay: Enzyme activity: determination of IC50, fluorescence assay with CCF2-FA substrate (VIM-1); format: biochemical; settings: read-out: VIM-1 IC50
[1] = test system: Serratia marcescens expressing IMP-1 (CL5741); assay: Antibiotic potentiation activity: synergistic concentration (MITC95) with imipenem, OD600 growth; format: cell-based; settings: for Serratia marcescens expressing IMP-1 (CL5741) MITC95: concentration giving 95% inhibition of bacterial growth; for Serratia marcescens MITC95: Serratia marcescens expressing IMP-1 (CL5741), 95% growth inhibition
Outline: (§1)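 CLB30005 was precultured on Mueller Hinton agar with 8 ug/ml imipenem, the other strains on trypticase soy agar with 5% sheep blood, overnight at 35 °C. Saline suspensions diluted 1:100 in 1.1× CAMHB received compound and 4 μg/ml imipenem, then 22–24 h at 35 °C before absorbance reading.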

[2] = test system: Klebsiella pneumoniae expressing VIM-1 (IHMA599644); assay: as above; format: cell-based; settings: for Klebsiella pneumoniae expressing VIM-1 (IHMA 599644) MITC95: concentration giving 95% inhibition of bacterial growth; for Klebsiella pneumoniae MITC95: Klebsiella pneumoniae expressing VIM-1 (IHMA599644), 95% growth inhibition
Outline: as §1

[3] = test system: Escherichia coli expressing NDM-1 (CLB30005); assay: as above; format: cell-based; settings: for Escherichia coli expressing NDM-1 (CLB 30005) MITC95: concentration giving 95% inhibition of bacterial growth; for Escherichia coli MITC95: Escherichia coli expressing NDM-1 (CLB30005), 95% growth inhibition
Outline: as §1

NDM-1 = NDM-1 (Klebsiella pneumoniae, UniProt C7C422); assay: biochemical; format: biochemical; settings: read-out: NDM-1 IC50
IMP-1 = IMP-1 (Serratia marcescens, UniProt P52699); assay: biochemical; format: biochemical; settings: read-out: IMP-1 IC50
[4] = fluorescence assay with CCF2-FA substrate

Sequence of NDM-1 (C7C422 whole entry, looked up, species assumed): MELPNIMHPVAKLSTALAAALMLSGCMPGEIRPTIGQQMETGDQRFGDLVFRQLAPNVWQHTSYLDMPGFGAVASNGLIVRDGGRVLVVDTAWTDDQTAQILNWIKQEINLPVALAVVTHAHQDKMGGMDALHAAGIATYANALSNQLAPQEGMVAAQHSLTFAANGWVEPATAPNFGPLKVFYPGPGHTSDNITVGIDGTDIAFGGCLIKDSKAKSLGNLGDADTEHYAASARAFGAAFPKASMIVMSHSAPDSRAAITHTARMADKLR
Sequence of IMP-1 (P52699 whole entry, looked up): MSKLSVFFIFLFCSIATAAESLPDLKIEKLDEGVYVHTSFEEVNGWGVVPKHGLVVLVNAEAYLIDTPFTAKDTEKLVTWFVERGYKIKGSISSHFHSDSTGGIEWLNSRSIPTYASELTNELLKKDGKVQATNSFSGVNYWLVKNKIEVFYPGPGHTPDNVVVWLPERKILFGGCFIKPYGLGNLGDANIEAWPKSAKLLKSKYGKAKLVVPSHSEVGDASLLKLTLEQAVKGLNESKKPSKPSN

Structure (SMILES)	pIC50 (VIM-1; [4])	Serratia marcescens expressing IMP-1 (CL5741) MITC95 [1] [µM]	Klebsiella pneumoniae expressing VIM-1 (IHMA 599644) MITC95 [2] [µM]	Escherichia coli expressing NDM-1 (CLB 30005) MITC95 [3] [µM]	pIC50 (NDM-1; [4])	pIC50 (IMP-1; [4])	pIC50 (VIM-1; VIM-1 enzyme, CCF2-FA fluorescence assay)	Serratia marcescens MITC95 [1] [µM]	Klebsiella pneumoniae MITC95 [2] [µM]	Escherichia coli MITC95 [3] [µM]	pIC50 (NDM-1; NDM-1 enzyme, CCF2-FA fluorescence assay)	pIC50 (IMP-1; IMP-1 enzyme, CCF2-FA fluorescence assay)
NS(=O)(=O)c1cccc(-c2ccc3ccncc3c2)c1-c1nn[nH]n1 [Example 71, 3-isoquinolin-7-yl-2-(2H-tetrazol-5-yl)benzenesulfonamide]	7.84	18.75	75	0.7813	8.91	7.10						
NS(=O)(=O)c1ccc(O)cc1-c1nn[nH]n1 [Example 254]							4.70	>200	>200	3.125		
NS(=O)(=O)c1cccc(C#CCN2CCC(=O)CC2)c1-c1nn[nH]n1 [Example 146, 3-[3-(4-oxopiperidin-1-yl)prop-1-yn-1-yl]-2-(2H-tetrazol-5-yl)benzenesulfonamide]		50	>200	1.172	7.18	6.12						
NS(=O)(=O)c1ccc2ccccc2c1-c1nnn[nH]1 [Example 399, 1-(1H-tetrazol-5-yl)naphthalene-2-sulfonamide]								>200	>200	3.906	6.93	4.82
NS(=O)(=O)c1nccc(-c2ccc(C(=O)NC3CCOCC3)cc2)c1-c1nnn[nH]1 [Example 186, 4-(2-Sulfamoyl-3-(1H-tetrazol-5-yl)pyridin-4-yl)-N-(tetrahydro-2H-pyran-4-yl)benzamide]		100	>200	18.75	7.01	6.25						
NS(=O)(=O)c1cccc(-c2ccccn2)c1-c1nn[nH]n1 [Example 93, 3-pyridin-2-yl-2-(2H-tetrazol-5-yl)benzenesulfonamide]	7.05		25	0.7813	8.50	6.48						
NS(=O)(=O)c1cccc(-c2ccc(OCCN3CCCCC3)cc2)c1-c1nn[nH]n1 [Example 89, 4′-(2-piperidin-1-ylethoxy)-2-(2H-tetrazol-5-yl)biphen-3-sulfonamide]		12.5	>200	4.688	7.26	6.50						
Cn1ccnc1-c1cccc(S(N)(=O)=O)c1-c1nn[nH]n1 [Example 38, 3-(1-methyl-1H-imidazol-2-yl)-2-(2H-tetrazol-5-yl)benzenesulfonamide]		25	200	0.7813	6.55	5.62						
Cn1cncc1-c1cccc(S(N)(=O)=O)c1-c1nn[nH]n1 [Example 43, 3-(1-methyl-1H-imidazol-5-yl)-2-(2H-tetrazol-5-yl)benzenesulfonamide]		75	>200	1.172	6.51	5.68						
CN(C)c1ccc(-c2ccnc(S(N)(=O)=O)c2-c2nn[nH]n2)cn1 [Example 211, 6-(dimethylamino)-3′-(2H-tetrazol-5-yl)-[3,4′-bipyridine]-2′-sulfonamide]		31.25	200	0.3906	7.34	6.27						
NS(=O)(=O)c1nccc(-c2cccnc2)c1-c1nnn[nH]1 [Example 193, 3′-(1H-tetrazol-5-yl)-[3,4′-bipyridine]-2′-sulfonamide]		150	37.5	0.7813	6.43	5.58						
